The record followed here is patent US6774121B1, “Phospholipid prodrugs of anti-proliferative drugs” (D-Pharm, Ltd., priority 1999, dated 2004).

Assay [1] concerns CEM-MTX (MTX-resistant mutant of CEM, mutation in the RFC). Put plainly: MTT cell growth inhibition, MTX-resistant CEM-MTX cells (Example 4). The assay is classed as cell-based, human. The conditions noted are these: Homo sapiens; 72 hours, MTT assay; read-out: EC50, nMol CEM-MTX. The protocol:
A series of methotrexate derivatives were screened for their inhibitory effect on cell growth. Three tumor cell lines were used for this screen: i) human leukemia cell line CCRF-CEM which is MTX-sensitive (herein denoted as CEM), ii) a mutant of CEM cell line which is MTX-resistant due to a mutation in the RFC (herein denoted as CEM-MTX; provided by Dr. Y. Assraf, Technion, Israel), and iii) rat C6 glioma cell line.
(§1) Cells were seeded at a density of 10^4 cells/ml in RPMI medium supplemented with 10% FCS in 96 well plates. The cultured cells were incubated, during their linear growth phase, in the presence and absence of various concentrations of MTX derivatives. The tested compounds were prepared as 1 mM stock in absolute ethanol or DMSO and were diluted into the medium. The highest vehicle presence in the assay was 5% of the vehicle. After 72 hours at 37° C. the cytotoxic effect on the cells was estimated by using the colorimetric MTT assay (Mosmann (1983) J. Immunol Methods 65: 55-63) that measures mitochondrial reductase activity and serves for quantitative assessment of cellular viability. Drug concentration required for inhibiting the growth of 50% of cell population in culture over a 72 hour period incubation, is defined as EC50.
The EC50 values were calculated from dose response curves for each tested compound.
A general note: Tetrazolium assays rely on reduction of a dye to a coloured formazan, in cell work by metabolically active cells.

The test system of a further assay is rat C6 glioma cell line. Put plainly: MTT cell growth inhibition, C6 glioma cells (Example 4). It counts as cell-based. The conditions noted are these: Rattus norvegicus, C6 glioma; 72 hours, MTT assay; read-out: EC50, nMol C6 glioma. Here is the method:
as §1, with “A series of methotrexate derivatives were screened for their inhibitory effect on cell growth. Three tumor cell lines were used for this screen: i) human leukemia cell line CCRF-CEM which is MTX-sensitive (herein denoted as CEM), ii) a mutant of CEM cell line which is MTX-resistant due to a mutation in the RFC (herein denoted as CEM-MTX; provided by Dr. […], Technion, Israel), and iii) rat C6 glioma cell line. Cells” for “Cells”, “[…] The EC50 values were calculated from dose response curves” for “Drug concentration required”, “each tested compound.” for “inhibiting the growth of 50% of cell population in culture over a 72 hour period incubation, is defined as EC50.”

Usually EC50 stands for the concentration at which the effect is half-maximal. Regarding `CN(Cc1cnc2nc(N)nc(N)c2n1)c1ccc(C(=O)N[C@@H](CCC(=O)O)C(=O)O)cc1` [MTX, Methotrexate], the EC50 in assay [1] was 2540 nM; in the assay on rat C6 glioma cell line, 46 nM.
